Here are results for 9 compounds from patent US4450269A, “Mono-5-substituted-3-chloro-4H-1,2,6-thiadiazin-4-one antifungal agents” (FMC Corporation, priority 1980, dated 1984).

Counter-ions that a name gives are not always drawn.

One test concerns Pythium ultimum. The experiment in a line: Mycelial growth test. Particulars: PU; for inhibition at 5 ppm / inhibition at 10 ppm / inhibition at 40 ppm / inhibition at 20 ppm: Globisporangium ultimum, 72 h, read-out: Percent Fungus Growth Inhibition; for Percent Fungus Growth Inhibition: 72 hours. The test is classed as cell-based.
A further test concerns Fusarium solani. The test can be described thus: Mycelial growth test. Format: cell-based. The following applies: for inhibition at 5 ppm / inhibition at 20 ppm / inhibition at 40 ppm / inhibition at 10 ppm: Fusarium solani, 72 h; for inhibition at 5 ppm / inhibition at 20 ppm / Percent Fungus Growth Inhibition / inhibition at 10 ppm: PS, 72 hours; for inhibition at 5 ppm / inhibition at 20 ppm / inhibition at 10 ppm: read-out: Percent Fungus Growth Inhibition; for inhibition at 40 ppm: read-out: Percent Fungus Growth Inhibition, PS, 40 ppm, 72 hours.

Broadly, the inhibition is the change of the read-out against control, counted positive when it falls.

`Nc1ccc(Oc2nsnc(Cl)c2=O)cc1` [Compound 26, 5-(4-aminophenoxy)-3-chloro-4H--1,2,6-thiadiazin-4-one]: the inhibition at 5 ppm came out at 0% in the test on Pythium ultimum and 13% in the test on Fusarium solani. In the test on Pythium ultimum, the inhibition at 10 ppm came to 0%. For the same compound, the inhibition at 40 ppm with Pythium ultimum (40 ppm) was 100%; in the test on Fusarium solani it was 42%. The “Percent Fungus Growth Inhibition” value in the test on Pythium ultimum (20 ppm) was found to be 13%; in the test with Fusarium solani (10 ppm), 33%. The inhibition at 20 ppm in the test on Fusarium solani (20 ppm) worked out at 17%.

For `Nc1ccc(Oc2nsnc(Cl)c2=O)cc1` [Compound 27, 5-(4-aminophenoxy)-3-chloro-4H--1,2,6-thiadiazine-4-one hydrochloride], the “Percent Fungus Growth Inhibition” value with Pythium ultimum (20 ppm, hydrochloride) came to 0%; with Pythium ultimum (40 ppm, hydrochloride) it was 80%; in the test on Fusarium solani (10 ppm, hydrochloride), 8%; in the test with Fusarium solani (20 ppm, hydrochloride), 13%.

For `CNC(=O)Nc1ccc(Oc2nsnc(Cl)c2=O)cc1` [Compound 28, 3-chloro-5-[4-(3-methylureido)-phenoxy]-4H--1,2,6-thiadiazin-4-one], the inhibition at 5 ppm in the test with Pythium ultimum and with Fusarium solani was 0% each time. Also, the inhibition at 10 ppm turned out to be 80% in the test on Pythium ultimum and 17% in the test on Fusarium solani (10 ppm). Moreover, the inhibition at 20 ppm in the test with Pythium ultimum (20 ppm) was 91%; in the test with Fusarium solani (20 ppm), 17%. Further, the inhibition at 40 ppm in the test with Pythium ultimum (40 ppm) is 100%; in the test on Fusarium solani, 13%.

For `O=C(Nc1ccccc1)Nc1ccc(Oc2nsnc(Cl)c2=O)cc1` [Compound 29, 3-chloro-5-[4-(3-phenylureido)-phenoxy]-4H--1,2,6-thiadiazin-4-one], the inhibition at 5 ppm in the test with Pythium ultimum and with Fusarium solani was 0% in each case. The inhibition at 10 ppm in the test on Pythium ultimum and with Fusarium solani (10 ppm) was 0% throughout. The inhibition at 20 ppm in the test with Pythium ultimum (20 ppm) and with Fusarium solani (20 ppm) was 0% in each case. Also, the inhibition at 40 ppm in the test with Pythium ultimum (40 ppm) amounted to 0%; with Fusarium solani, 13%.

Consider `O=c1c(Cl)nsnc1Oc1c(Cl)cc(Cl)cc1Cl` [Compound 30, 3-chloro-5-(2,4,6-trichlorophenoxy)-4H--1,2,6-thiadiazin-4-one], for which the inhibition at 5 ppm in the test with Pythium ultimum is 20%; in the test on Fusarium solani it was 52%. In addition, the inhibition at 10 ppm in the test on Pythium ultimum was 71%; in the test on Fusarium solani (10 ppm) it was 81%. Further, the inhibition at 20 ppm with Pythium ultimum (20 ppm) came to 96%; in the test with Fusarium solani (20 ppm), 90%. The inhibition at 40 ppm in the test on Pythium ultimum (40 ppm) and in the test with Fusarium solani was 100% throughout.

Consider `O=c1c(Cl)nsnc1Oc1c(Cl)c(Cl)c(Cl)c(Cl)c1Cl` [Compound 31, 3-chloro-5-(pentachlorophenoxy)-4H--1,2,6-thiadiazine-4-one], for which the inhibition at 5 ppm in the test with Pythium ultimum was 0%; with Fusarium solani it was 42%. For the same compound, the inhibition at 10 ppm in the test on Pythium ultimum was found to be 0%; in the test on Fusarium solani (10 ppm), 42%. Further, the inhibition at 20 ppm was 0% in the test on Pythium ultimum (20 ppm) and 58% with Fusarium solani (20 ppm). Besides, the values for the inhibition at 40 ppm in the test on Pythium ultimum (40 ppm) and in the test with Fusarium solani were 0% and 58%, respectively.

On to `O=c1c(Cl)nsnc1Oc1cccc2ccccc12` [Compound 32, 3-chloro-5(1-naphthoxy)-4H-1,2,6-thiadiazin-4-one], for which the inhibition at 5 ppm with Pythium ultimum amounted to 73%; in the test on Fusarium solani, 100%. Moreover, the inhibition at 10 ppm turned out to be 73% in the test with Pythium ultimum and 100% in the test with Fusarium solani (10 ppm). Also, the inhibition at 20 ppm with Pythium ultimum (20 ppm) and in the test with Fusarium solani (20 ppm) was 100% throughout. Moreover, the inhibition at 40 ppm with Pythium ultimum (40 ppm) and in the test with Fusarium solani was 100% throughout.

For the compound `O=c1c(Cl)nsnc1Oc1ccccc1Br` [Compound 34, 3-chloro-5-(2-bromophenoxy)-4H-1,2,6,-thiadiazin-4-one], the inhibition at 5 ppm in the test on Pythium ultimum is 0%; in the test on Fusarium solani, 13%. Also, the figures for the inhibition at 10 ppm in the test with Pythium ultimum and in the test with Fusarium solani (10 ppm) were 64% and 43%, respectively. The inhibition at 20 ppm with Pythium ultimum (20 ppm) came out at 87%; with Fusarium solani (20 ppm), 50%. Besides, the inhibition at 40 ppm in the test with Pythium ultimum (40 ppm) and with Fusarium solani was 100% in each case.

As for `O=c1c(Cl)nsnc1Oc1ccc(O)cc1` [Compound 35, 3-chloro-5-(4-hydroxyphenoxy)-4H-1,2,6-thiadiazin-4-one], the inhibition at 5 ppm is 0% in the test on Pythium ultimum and 30% in the test on Fusarium solani. The inhibition at 10 ppm turned out to be 11% in the test on Pythium ultimum and 35% in the test on Fusarium solani (10 ppm). Further, the inhibition at 20 ppm in the test with Pythium ultimum (20 ppm) amounted to 100%; with Fusarium solani (20 ppm), 60%. The figures for the inhibition at 40 ppm in the test with Pythium ultimum (40 ppm) and in the test with Fusarium solani were 100% and 80%, respectively.
